The term IC50 denotes the concentration needed to halve the response being measured.

The target of the first assay is T1, SMYD2 (Homo sapiens, UniProt Q9NRG4).
T1 construct: Full length SMYD2 (NP 064582.2) was cloned; His6 (N, cleaved yes); FLAG (N); made in house; host or cells: Sf9 insect cells
T1 sequence (Q9NRG4 whole entry): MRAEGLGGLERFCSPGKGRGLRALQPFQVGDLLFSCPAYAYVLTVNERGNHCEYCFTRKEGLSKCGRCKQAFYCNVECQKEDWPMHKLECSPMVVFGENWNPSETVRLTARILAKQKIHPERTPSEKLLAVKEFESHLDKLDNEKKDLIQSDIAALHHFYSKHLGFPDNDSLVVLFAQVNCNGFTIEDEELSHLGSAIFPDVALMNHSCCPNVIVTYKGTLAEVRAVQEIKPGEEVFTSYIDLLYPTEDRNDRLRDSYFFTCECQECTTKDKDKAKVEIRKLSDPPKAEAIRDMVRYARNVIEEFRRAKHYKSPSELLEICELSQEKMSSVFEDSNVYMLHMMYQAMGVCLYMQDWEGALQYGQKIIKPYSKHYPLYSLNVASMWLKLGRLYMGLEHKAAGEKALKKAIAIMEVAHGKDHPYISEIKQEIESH
The assay is described as follows: SMYD2 Biochemical Assay (3H-SAM, biotinylated peptide substrate, Flashplate). The note with it: IC50 values are an average of n = 1 to n = 50; read-out: SMYD2 Biochem IC50 (μM)*. The essentials: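 Methyltransferase activity tracked as 3H transfer from 10 nM 3H-SAM to 60 nM biotinylated peptide, counted after streptavidin Flashplate capture and normalised to DMSO and 1000 uM SAH controls. Enzyme: 1.5 nM full-length Sf9-expressed SMYD2, 30 min compound pre-incubation at room temperature, in Bicine pH 7.6 buffer with 2% DMSO; reactions quenched with 600 uM unlabelled SAM; IC50 from 3- or 4-parameter fit.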
Consider `CC(C)N1C[C@H](C)[C@H](NC(=O)c2cc(C(F)(F)F)on2)C1` (racemic) [compound 348, (±)-cis-N-[4-methyl-1-(propan-2-yl)pyrrolidin-3-yl]-5-(trifluoromethyl)-1,2-oxazole-3-carboxamide], for which the IC50 is 6.68 µM. Regarding `C[C@@H]1CN(CC(=O)N2CCOCC2)C[C@H]1NC(=O)c1cc(C2CC2)on1` (racemic) [compound 271, (±)-trans-5-cyclopropyl-N-[4-methyl-1-[2-(morpholin-4-yl)-2-oxoethyl]pyrrolidin-3-yl]-1,2-oxazole-3-carboxamide], the IC50 was above 50 µM.

As for `COc1cccc(N2C[C@H](C)[C@H](NC(=O)c3cc(C4CC4)on3)C2)c1` (racemic) [compound 280, (±)-cis-5-cyclopropyl-N-[1-(3-methoxyphenyl)-4-methylpyrrolidin-3-yl]-1,2-oxazole-3-carboxamide], the IC50 was above 50 µM. Turning to `C[C@H]1CN(Cc2cccc3c2OCO3)C[C@H]1NC(=O)c1cc(C2CC2)on1` (racemic) [compound 331, (±)-cis-N-[1-(2H-1,3-benzodioxol-4-ylmethyl)-4-methyl-pyrrolidin-3-yl]-5-cyclopropyl-1,2-oxazole-3-carboxamide], the IC50 came out at 3.57 µM. Take `CC(C)N1C[C@@H](C)[C@H](NC(=O)c2cc(C3(C)CC3)on2)C1` (racemic) [compound 250, (±)-trans-N-[4-methyl-1-(propan-2-yl)pyrrolidin-3-yl]-5-(1-methylcyclo-propyl)-1,2-oxazole-3-carboxamide]: the IC50 was above 50 µM. Same read-out and setting: with `C[C@H]1CN(c2ccncc2)C[C@H]1NC(=O)c1cc(C2CC2)on1` (racemic) [compound 319, (±)-cis-5-cyclopropyl-N-[4-methyl-1-(pyridin-4-yl)pyrrolidin-3-yl]-1,2-oxazole-3-carboxamide] the figure was above 50 µM; with `C[C@H]1CN(CCC2CCN(C(=O)OC(C)(C)C)CC2)C[C@H]1NC(=O)c1cc(C2CC2)on1` (racemic) [compound 169, (±)-cis-tert-butyl 4-{2-[3-(5-cyclopropyl-1,2-oxazole-3-amido)-4-methylpyrrolidin-1-yl]ethyl}piperidine-1-carboxylate], 6.92 µM. On to `CCc1nc(C)c(CN2C[C@@H](C)[C@H](NC(=O)c3cc(C4CC4)on3)C2)[nH]1` (racemic) [compound 131, (±)-trans-5-cyclopropyl-N-[1-[(2-ethyl-4-methyl-1H-imidazol-5-yl)methyl]-4-methyl-pyrrolidin-3-yl]-1,2-oxazole-3-carboxamide], for which the IC50 was above 50 µM. Take `CC(C)C[C@H]1CN(C)C[C@@H]1NC(=O)c1cc(C2CC2)on1` (racemic) [compound 153, (±)-trans-5-cyclopropyl-N-[1-methyl-4-(2-methylpropyl)pyrrolidin-3-yl]-1,2-oxazole-3-carboxamide]: the IC50 was determined as 39.1 µM. With `C[C@H]1CN(Cc2ccc3c(c2)OCCO3)C[C@H]1NC(=O)c1cc(C2CC2)on1` (racemic) [compound 274, (±)-cis-5-cyclopropyl-N-[1-(2,3-dihydro-1,4-benzodioxin-6-ylmethyl)-4-methylpyrrolidin-3-yl]-1,2-oxazole-3-carboxamide], the IC50 came out at 6.3 µM. For `CC(C)N1C[C@@H](C)[C@H](NC(=O)c2cc(C3CC3)on2)C1` (racemic) [compound 191, (±)-trans-5-cyclopropyl-N-[4-methyl-1-(propan-2-yl)pyrrolidin-3-yl]-1,2-oxazole-3-carboxamide], the IC50 came to 40.3 µM.

On to `COc1ccc(N2C[C@@H](C)[C@H](NC(=O)c3cc(C4CC4)on3)C2)cc1` (racemic) [compound 299, (±)-trans-5-cyclopropyl-N-[1-(4-methoxyphenyl)-4-methylpyrrolidin-3-yl]-1,2-oxazole-3-carboxamide], for which the IC50 was above 50 µM.

Turning to `C[C@H]1CN(Cc2c(Br)cncc2Br)C[C@H]1NC(=O)c1cc(C2CC2)on1` (racemic) [compound 231, (±)-cis-5-cyclopropyl-N-[1-[(3,5-dibromo-pyridin-4-yl)methyl]-4-methylpyrrolidin-3-yl]-1,2-oxazole-3-carboxamide], the IC50 was above 50 µM.

Turning to `C[C@@H]1CN(Cc2ccc(N(C)C)cc2)C[C@H]1NC(=O)c1cc(C2CC2)on1` (racemic) [compound 148, (±)-trans-5-cyclopropyl-N-[1-{[4-(dimethyl-amino)phenyl]methyl}-4-methylpyrrolidin-3-yl]-1,2-oxazole-3-carboxamide], the IC50 was found to be 37 µM. Consider `C[C@H]1CN(CCF)C[C@H]1NC(=O)c1cc(C2CC2)on1` (racemic) [compound 254, (±)-cis-5-cyclopropyl-N-[1-(2-fluoroethyl)-4-methylpyrrolidin-3-yl]-1,2-oxazole-3-carboxamide], for which the IC50 came out at 5.72 µM. On the same count and under the same terms, with `C[C@H]1CN(c2ccnc(N)n2)C[C@H]1NC(=O)c1cc(C2CC2)on1` (racemic) [compound 334, (±)-cis-N-[1-(2-amino-pyrimidin-4-yl)-4-methylpyrrolidin-3-yl]-5-cyclopropyl-1,2-oxazole-3-carboxamide] the figure was above 50 µM. Turning to `C[C@H]1CN(Cc2ccc3nonc3c2)C[C@H]1NC(=O)c1cc(C2CC2)on1` (racemic) [compound 222, (±)-cis-N-[1-(2,1,3-benzoxadiazol-5-ylmethyl)-4-methyl-pyrrolidin-3-yl]-5-cyclopropyl-1,2-oxazole-3-carboxamide], the IC50 is 41.6 µM.

Regarding `CC(C)N1C[C@@H](NC(=O)c2cc(C3CC3)on2)[C@@](C)(O)C1` (racemic) [compound 241, (±)-cis-5-cyclopropyl-N-[4-hydroxy-4-methyl-1-(propan-2-yl)pyrrolidin-3-yl]-1,2-oxazole-3-carboxamide], the IC50 came to 24.8 µM. Regarding `CC(C)c1cc(C(=O)N[C@H]2C[C@H](CNC(=O)c3ccccc3)N(C3CC3)C2)no1` (stereo in doubt) [compound 189, (±)-trans-N-[1-cyclopropyl-5-[(phenyl-formamido)methyl]pyrrolidin-3-yl]-5-(propan-2-yl)-1,2-oxazole-3-carboxamide], the IC50 is above 50 µM.

The assay is the same for the next values; noted with them: Table 2; average of n = 1 to n = 50; read-out: SMYD2 Biochem IC50.
Turning to `C[C@@H]1CN(C(=O)CN)C[C@@H]1NC(=O)c1cc(C2CC2)on1` (racemic) [compound 68, (±)-cis-5-cyclopropyl-N-(1-glycyl-4-methylpyrrolidin-3-yl)isoxazole-3-carboxamide], the IC50 was above 50 µM. Same read-out and setting: with `C[C@H]1C[C@@H](NC(=O)c2cc(C3CC3)on2)CN1C` (racemic) [compound 64, (±)-cis-5-cyclopropyl-N-(1,5-dimethylpyrrolidin-3-yl)isoxazole-3-carboxamide] the figure was above 50 µM; with `C[C@H]1CN(C(=O)CN)C[C@@H]1NC(=O)c1cc(C2CC2)on1` (racemic) [compound 92, (±)-trans-5-cyclopropyl-N-(1-glycyl-4-methylpyrrolidin-3-yl)isoxazole-3-carboxamide], above 50 µM; with `C[C@H]1CN(C2CCCC2)C[C@H]1NC(=O)c1cc(C2CC2)on1` (racemic) [compound 75, (±)-cis-N-(1-cyclopentyl-4-methylpyrrolidin-3-yl)-5-cyclopropylisoxazole-3-carboxamide], 5 µM. As for `C[C@H]1CN(C(=O)CC2CCNCC2)C[C@@H]1NC(=O)c1cc(C2CC2)on1` (racemic) [compound 95, (±)-trans-5-cyclopropyl-N-(4-methyl-1-(2-(piperidin-4-yl)acetyl)pyrrolidin-3-yl)isoxazole-3-carboxamide], the IC50 was above 50 µM.

For the origin of these results see US20170253601A1, “Substituted Pyrrolidine Compounds” (EPIZYME, INC., priority 2014, published 2017).
